Results on 16 compounds are retold here after PMC11374673, “Discovery of isoquinoline sulfonamides as allosteric gyrase inhibitors with activity against fluoroquinolone-resistant bacteria” (Nature Chemistry, 2024).

Experiment [1] relates to K. pneumoniae ATCC 29665. Put plainly: MIC by broth microdilution. It is filed as cell-based, Klebsiella pneumoniae. The following applies: read-out: MIC K. pneumoniae ATCC 29665. How it is done:
(§1) MIC was determined by broth microdilution. Single-colony cultures were grown to exponential phase (OD600 of 0.5) aerobically at 37 °C. In case of strains from the Keio collection, 50 µg ml^−1 kanamycin was supplemented to the media to ascertain a homogeneous population. The bacterial suspensions were diluted 100-fold in CAMHB and 50 µl was added to a twofold serial dilution series of test compounds (50 µl per well) in polypropylene 96-well microtitre plates to reach a volume of 100 µl. The plates were sealed with breathable membranes and incubated overnight at 37 °C with constant shaking (600 r.p.m.).

For experiment [2], the system named is E. coli W3110. The experiment can be described thus: MIC by broth microdilution. The following applies: for MIC: broth microdilution, read-out: MIC E. coli W3110; for antimicrobial activity: relative to parent compound. It is filed as cell-based, Escherichia coli. As to the method:
as §1

Where [3] appears, read: Klebsiella pneumoniae, ATCC29665, broth microdilution.

The structures appear in SMILES notation. Values after ≈ are worked out from the molar mass of the structure shown. Read-outs that look alike come from different tables or passages of the source. Some results are limits rather than exact numbers.

As a reminder, the MIC is the lowest concentration that inhibits growth of the organism. As to `Cc1cccc(-c2ccc(CNCCNS(=O)(=O)c3cccc4cnccc34)cc2)c1` [Compound 67], the MIC in experiment [1] (setting [3]) was more than 50 µM; in experiment [1] (broth microdilution) it was more than 50 µM; in experiment [2] (Escherichia coli, W3110, WT) it was more than 50 µM; in experiment [2] (WT), more than 50 µM.

With `O=S(=O)(NCCNCc1ccc(-c2cc(Cl)cc(Cl)c2)cc1)c1cccc2cnccc12` [Compound 75], the MIC is more than 50 µM in experiment [1] (setting [3]); more than 50 µM in experiment [1] (broth microdilution); more than 50 µM in experiment [2] (Escherichia coli, W3110, WT); more than 50 µM in experiment [2] (WT).

`O=S(=O)(NCCNCc1ccc(-c2ccccc2Cl)cc1)c1cccc2cnccc12` [Compound 70]: the MIC in experiment [1] (setting [3]) was 50 µM (≈ 22.6 µg/mL); in experiment [2] (Escherichia coli, W3110, WT), 25 µM (≈ 11.3 µg/mL).

`O=S(=O)(NCCNCc1ccc(-c2ccc(F)cc2)nc1)c1cccc2cnccc12` [Compound 82]: the MIC is more than 50 µM in experiment [1] (setting [3]); more than 50 µM in experiment [1] (broth microdilution); more than 50 µM in experiment [2] (Escherichia coli, W3110, WT); more than 50 µM in experiment [2] (WT).

With `O=S(=O)(NCCNCc1ccc(-c2cccc(F)c2)cc1)c1cccc2cnccc12` [Compound 66], the MIC in experiment [1] (setting [3]) came out at 25 µM (≈ 10.9 µg/mL); in experiment [2] (Escherichia coli, W3110, WT) it was 12.5 µM (≈ 5.44 µg/mL).

As for `O=S(=O)(NCCNCc1ccc(-c2ccc3c(c2)OCCO3)cc1)c1cccc2cnccc12` [Compound 78], the minimal inhibitory concentration (MIC) in experiment [1] (setting [3]) is more than 50 µM; in experiment [1] (broth microdilution), more than 50 µM; in experiment [2] (Escherichia coli, W3110, WT), more than 50 µM; in experiment [2] (WT), more than 50 µM.

On to `O=S(=O)(NCCNCc1ccc(-c2ccc(F)nc2)c(Cl)c1)c1cccc2cnccc12` [Compound 85], for which the MIC in experiment [1] (setting [3]) is more than 50 µM; in experiment [1] (broth microdilution), more than 50 µM; in experiment [2] (Escherichia coli, W3110, WT) it was more than 50 µM; in experiment [2] (WT) it was more than 50 µM.

Consider `Nc1cc2c(S(=O)(=O)NCCNCc3ccc(-c4cccnc4)cc3)cccc2cn1` [Compound 55], for which the MIC was more than 50 µM in experiment [1] (setting [3]); more than 50 µM in experiment [1] (broth microdilution); more than 50 µM in experiment [2] (Escherichia coli, W3110, WT); more than 50 µM in experiment [2] (WT).

`O=S(=O)(NCCNCc1ccc(-c2cccnc2)cc1)c1ccccc1` [Compound 48]: the MIC in experiment [1] (setting [3]) is more than 50 µM; in experiment [1] (broth microdilution), more than 50 µM; in experiment [2] (Escherichia coli, W3110, WT) it was more than 50 µM; in experiment [2] (WT), more than 50 µM. In experiment [2], the “antimicrobial activity” value is listed as “lost all activity”.

`O=S(=O)(NCCNCc1ccc(-c2cccnc2)cc1)c1ccc2cn[nH]c2c1` [Compound 50]: the MIC in experiment [1] (setting [3]) was more than 50 µM; in experiment [1] (broth microdilution), more than 50 µM; in experiment [2] (Escherichia coli, W3110, WT), more than 50 µM; in experiment [2] (WT), more than 50 µM.

As to `O=S(=O)(NCCNCc1ccc(-c2cccnc2)nc1)c1cccc2cnccc12` [Compound 79], the MIC in experiment [1] (setting [3]) was more than 50 µM; in experiment [1] (broth microdilution) it was more than 50 µM; in experiment [2] (Escherichia coli, W3110, WT), more than 50 µM; in experiment [2] (WT), more than 50 µM.

For the compound `Cc1ccc(-c2ccc(CNCCNS(=O)(=O)c3cccc4cnccc34)cc2)cc1` [Compound 62], the MIC in experiment [1] (setting [3]) was more than 50 µM; in experiment [1] (broth microdilution), more than 50 µM; in experiment [2] (Escherichia coli, W3110, WT), more than 50 µM; in experiment [2] (WT) it was more than 50 µM.

In the case of `CN(CCNS(=O)(=O)c1cccc2cnccc12)Cc1ccc(-c2cccnc2)cc1` [Compound 95], the MIC was 50 µM (≈ 21.6 µg/mL) in experiment [1] (setting [3]); more than 50 µM in experiment [2] (Escherichia coli, W3110, WT); more than 50 µM in experiment [2] (WT). The “antimicrobial activity” value in experiment [2] is given as “abolished all activity”.

On to `O=S(=O)(NCCNCc1ccc(-c2ccc3c(c2)OCO3)cc1)c1cccc2cnccc12` [Compound 77], for which the MIC in experiment [1] (setting [3]) was more than 50 µM; in experiment [1] (broth microdilution), more than 50 µM; in experiment [2] (Escherichia coli, W3110, WT) it was more than 50 µM; in experiment [2] (WT) it was more than 50 µM.

Take `N#Cc1ccccc1-c1ccc(CNCCNS(=O)(=O)c2cccc3cnccc23)cc1` [Compound 72]: the MIC in experiment [1] (setting [3]) was found to be 50 µM (≈ 22.1 µg/mL); in experiment [2] (Escherichia coli, W3110, WT) it was 25 µM (≈ 11.1 µg/mL).

For the compound `CNC(=O)c1ccc(S(=O)(=O)NCCNCc2ccc(-c3cccnc3)cc2)cn1` [Compound 51], the minimum inhibitory concentration (MIC) in experiment [1] (setting [3]) was more than 50 µM; in experiment [1] (broth microdilution) it was more than 50 µM; in experiment [2] (Escherichia coli, W3110, WT), more than 50 µM; in experiment [2] (WT) it was more than 50 µM.
